Source: ChEMBL document CHEMBL2094269, “WEHI/Eskitis Trypanosoma b. brucei screening data”

Tests used:
[1] = DNDI: Cytotoxicity against human MRC-5 lung fibroblast cells.; conditions: IC50
[2] = tested on: Trypanosoma brucei brucei; experiment: microbe, parasite or virus in culture; type: functional, organism-based, STIB 795
Description: DNDI: Inhibition of Human African Trypanosomiasis (HAT), STIB 795, in vitro

| SMILES | IC50 [1] [µM] | IC50 ([2]; Trypanosoma brucei, STIB 795) [µM] | IC50 [2] [µM] |
| --- | --- | --- | --- |
| CCCCC1=NN(C(=O)c2ccccn2)C(O)(C(F)(F)F)C1 (stereo not drawn) | > 20.8 | 5.4 |  |
| NCCCCCOC(c1ccc(F)cc1)c1ccc(F)cc1 | > 41.7 | 5.53 |  |
| COc1ccccc1C(CCNC(C)c1ccccc1)C1CCOC(C)(C)C1 (stereo not drawn) | > 41.7 | 4.74 |  |
| NC(=NOC(=O)c1cccc2ccccc12)c1ccccn1 | > 20.8 | 3.58 |  |
| O=C1Nc2ccc(OC(F)(F)F)cc2C1=O | > 41.7 | 4.72 |  |
| CC(C)(C)c1ccc(CN2CCCn3c2nc2ccccc23)cc1 | > 20.8 | 5.62 |  |
| CCC1CO/C(=C2\Sc3ccccc3C2=O)N1 (stereo not drawn) | > 20.8 | 5.08 |  |
| CC(C)(C)c1cc(C(c2ccccc2O)N2CCCCC2)cc(C(C)(C)C)c1O (stereo not drawn) | > 41.7 | 3.39 | 4.51 |
| N=C(N)N/N=C(\c1ccc(Cl)cc1)c1ccc(Cl)s1 | > 4.17 | ≤ 2.46 |  |
| COc1ccc(C(=O)C(C)N2C=CC=C/C2=C2\C=CC=CN2)cc1 (stereo not drawn) | > 41.7 | 4.25 |  |
| N=c1n(Cc2ccccc2)c2ccccc2n1CC(O)COc1ccccc1 (stereo not drawn) | > 41.7 | 7.55 |  |
| Cc1cccc(NCc2ccc(O)c3ncccc23)n1 | > 20.8 | 4.89 |  |
| CN(C)c1ccc(/C=C/c2cc[n+](C)c3ccccc23)cc1 | > 2.08 | 0.038 |  |
| O=C(N/N=C\c1cc(Cl)ccc1O)c1cccs1 | > 41.7 | 10.9 |  |
| CN(C)CCCNc1nc(-c2ccc(Cl)cc2)nc2ccccc12 | > 20.8 | 3.74 |  |
| COc1ccccc1C(=O)Nc1ccccc1Sc1cc(C)nc2ncnn12 | > 41.7 | 4.02 |  |
| CC(C)(C)OC(=O)N/N=C\c1ccc(-c2cccc(Cl)c2)o1 | > 41.7 | 7.35 |  |
| CC(C)N1C/C(=C/c2ccccn2)C(=O)/C(=C/c2ccccn2)C1 | 5.78 | 0.236 |  |
| Clc1ccnc2c1ccc1nn[nH]c12 | > 41.7 | 4.39 |  |
| CNCCCC1Sc2ccccc2Oc2ccccc21 (stereo not drawn) | > 41.7 | 4.7 |  |
| Oc1c(CN2CCC(Cc3ccccc3)CC2)cc(Cl)c2cccnc12 | > 20.8 | 4.68 |  |
| Cc1ccc2c(c1)C(=O)C(CN1CCOCC1)CO2 (stereo not drawn) | > 20.8 | 2.17 |  |
| O=C1c2cccc3c(N4CCOCC4)ccc(c23)C(=O)N1O | > 41.7 | 8.03 |  |
| COC(=O)c1ccccc1OCCCON1C(N)=NC(N)=NC1(C)C | > 0.42 | 0.351 |  |
| CC(C)(C)c1ccc2c(c1)OCCOCCOCCOCCO2 | > 20.8 | 5.26 |  |
| COc1ccc(C(CC(=O)c2ccncc2)SCc2ccco2)cc1 (stereo not drawn) | > 41.7 | 4.3 |  |

| SMILES | IC50 [1] [µM] | IC50 ([2]; Trypanosoma brucei, STIB 795) [µM] | IC50 [2] [µM] |
| --- | --- | --- | --- |
| Cc1cc(/C=N/n2cnnc2)c(C)n1-c1cccc(C(F)(F)F)c1 | > 41.7 | < 0.04 |  |
| C/C(=N\NC(=O)c1cccc2ccccc12)c1ccccn1 | > 4.17 | 2.34 |  |
| Cc1ccccc1-n1sc2ccccc2c1=O | > 20.8 | 1.99 |  |
| CC1CS/C(=N/c2ccc(Br)cc2)N1 (stereo not drawn) | > 41.7 | 6.65 |  |
| Cn1c(-c2cccnc2)nn(C2CC(=O)C3OCC2O3)c1=S (stereo not drawn) | > 20.8 | 2.32 |  |
| Cc1cc2nc(N/C(N)=N/C(=O)NC3CCCCC3)nc(C)c2cc1C | > 41.7 | 5.33 |  |
| Cc1cccc(C(=O)O/N=C(\N)c2ccncc2)c1 | > 41.7 | 5.42 |  |
| Oc1c(Cl)cc(CN2CCOCC2)c2cccnc12 | > 20.8 | 0.956 | 1.12 |
| O=C(c1ccc(F)cc1)C(CSc1ccc(F)cc1)n1cncn1 (stereo not drawn) | > 41.7 | 4.92 |  |
| O=C(c1ccc(Cl)cc1)C(CN1CCOCC1)c1ccccc1 (stereo not drawn) | > 20.8 | 3.11 | 4 |
| N=c1n(Cc2ccccc2)c2ccccc2n1CC(O)c1ccc(Cl)cc1 (stereo not drawn) | > 20.8 | 5.48 | 5.31 |
| CNC1=C(N(C(C)=O)c2ccc(Br)cc2)C(=O)c2ccccc2C1=O | 4.88 | 0.515 |  |
| CN(/C=C/C=C/C=C/C1=[N+](C)c2ccccc2C1(C)C)c1ccccc1 | > 20.8 | 1.97 |  |
| Cc1cc(NC2CCCCC2)nc(NCc2ccccc2)n1 | > 41.7 | 4.49 |  |
| CCOC(=O)N/N=C1/c2ccccc2-c2nc3nonc3nc21 | > 20.8 | 0.8 |  |
| NCCNCCC=C(c1ccc(F)cc1)c1ccc(F)cc1 | > 20.8 | 0.265 |  |
| Cn1c(Cc2ccccc2)nn(C2CC(=O)C3OCC2O3)c1=S (stereo not drawn) | > 41.7 | 4.91 |  |
| Cc1cccc(N2CCN(CCN)CC2)c1C | > 41.7 | 5.21 |  |
| CC(C)CC(=O)NC(=C(Cl)Cl)S(=O)(=O)c1ccccc1 | > 4.17 | 5.33 |  |
| O=C1CC(n2nnn(-c3ccccc3Cl)c2=S)C2COC1O2 (stereo not drawn) | > 41.7 | 4.6 |  |
| CCN1/C(=C/c2cccc[n+]2C)C=Cc2cc(C)ccc21 | > 20.8 | 0.909 |  |
| CN1CCN(C2Cc3ccccc3Sc3ccc(N(C)C)cc32)CC1 (stereo not drawn) | > 41.7 | 5.04 |  |
| CC(=O)CC1(O)C(=O)Nc2ccc(I)cc21 (stereo not drawn) | > 41.7 | 3.13 |  |
| Nc1nonc1C(=O)N/N=C/c1c(O)ccc2ccccc12 | > 4.17 | 5.33 |  |
| Cc1cc(Cl)n(C)c2nc3ccccc3c1-2 | > 10.4 | 0.631 |  |
| Cc1ccc(NCC(=O)N/N=C/c2c(C)cc(O)cc2O)cc1 | > 20.8 | 5.37 |  |

| SMILES | IC50 [1] [µM] | IC50 ([2]; Trypanosoma brucei, STIB 795) [µM] | IC50 [2] [µM] |
| --- | --- | --- | --- |
| COc1cccc2c(N)c3c(cnn3C)nc12 | > 4.17 | 1.21 |  |
| CC1(C)CC(=O)C(C2=C(Cl)C(=O)c3ccccc3C2=O)=C(O)C1 | > 41.7 | 0.642 | 0.59 |
| O=C(CC1(O)C(=O)Nc2ccc(Br)cc21)c1ccccc1F (stereo not drawn) | > 41.7 | 4.54 |  |
| C/C(=N\NC(=O)CCCNc1cccc(C)c1)c1ccccn1 | > 10.4 | 3.96 |  |
| CCN1CCN(C(c2cccnc2)c2cc(Cl)c3cccnc3c2O)CC1 (stereo not drawn) | > 41.7 | 5.83 |  |
| COc1ccc(N2C(=O)CN(Cc3sccc3C)C2=S)cc1Cl | > 41.7 | 4.94 |  |
| CC[n+]1ccccc1/C=C1\C=Cc2cc(C)ccc2N1C | > 20.8 | 0.911 |  |
| O=C(COc1ccccc1)N/N=C/c1sc2ccccc2c1O | > 20.8 | 7.88 |  |
| O=C(CNc1ccc(Cl)cc1)N/N=C/c1cccnc1 | > 4.17 | 1.75 |  |
| O=C(CC(Nc1ccc2ccccc2c1)c1ccncc1)c1cccnc1 (stereo not drawn) | > 41.7 | 0.827 |  |
| O=C(CCN1CCCCC1)Nc1ccc(OC(F)(F)Cl)cc1 | > 41.7 | 4.27 | 3.9 |
| CC(C)CC(=O)/C(=C/c1ccc(Cl)cc1Cl)n1cncn1 | > 20.8 | 2.27 |  |
| COc1ccccc1C1N=C(c2ccc(Cl)cc2)CC(c2ccccc2O)N1 (stereo not drawn) | > 41.7 | 5.24 |  |
| N=c1n(CCO)c2ccccc2n1CCOc1ccc(Cl)cc1Cl | 8.93 | 2.63 |  |
| CC(C)c1ccc(OCc2ccc(C(=O)NCCN(C)C)cc2)cc1 | > 20.8 | 5.86 |  |
| O=c1ccccc2c(/C=C/c3cccc(Cl)c3Cl)nn(-c3ccccc3)c12 | > 10.4 | 5.34 |  |
| Cc1ccc(-c2cn3c([n+]2-c2ccc(C)cc2)CCCCC3)cc1 | > 20.8 | 6.4 |  |
| C=CCN1C(=O)C(O)(CC(=O)c2ccco2)c2cc(Br)ccc21 (stereo not drawn) | > 41.7 | 0.483 |  |
| COC12C=CC(CC1)C1C(=O)c3cccc(O)c3C(=O)C12 (stereo not drawn) | > 20.8 | 2.48 |  |
| Cc1c(C)c(C)c2c(CC(C)N)c[nH]c2c1C (stereo not drawn) | > 41.7 | 4.24 |  |
| Cc1cccc(CN2CCN(Cc3c[nH]c4ccccc34)CC2)c1 | > 20.8 | 5.24 |  |
| Cc1ccccc1C(=O)O/N=C(\N)Cc1cccs1 | > 20.8 | 0.414 |  |
| CC(C)Cc1ccc(C(C)C(=N)NC2CCCCC2)cc1 (stereo not drawn) | > 20.8 | 5.45 |  |
| CC(CON1C(N)=NC(N)=NC1(C)C)Cc1cccc(Br)c1 (stereo not drawn) | > 4.17 | ≤ 3.67 |  |
